The first assay relates to Pyricularia grisea. Nature of the assay: Antifungal activity against Magnaporthe grisea infected rice plant assessed as logarithm of fungal control value at 100 ppm after 5 days. It counts as functional.
As to `CCc1ccc(NC(=O)Cc2cs/c(=N\c3ccc(OC)cc3)n2C)cc1`, the Activity came to 1.99.

In the case of `CCOc1ccc(/N=c2/scc(CC(=O)Nc3ccc(OC)cc3)n2C)cc1`, the Activity is reported as 1.98.

For `Cc1ccc(NC(=O)Cc2cs/c(=N\c3ccc(F)cc3F)n2C)cc1`, the Activity is reported as 1.99. The same measure, in the same setting: with `CCCCCOc1ccc(/N=c2/scc(CC(=O)Nc3ccc(CC)cc3)n2C)cc1` the figure was 1.96; with `CCc1ccc(NC(=O)Cc2cs/c(=N\c3ccc(F)c([N+](=O)[O-])c3)n2C)cc1`, 1.98. Take `COc1ccc(NC(=O)Cc2cs/c(=N\c3ccc(Cl)c(Cl)c3)n2C)cc1`: the Activity worked out at 1.98. For the compound `CCc1ccc(NC(=O)Cc2cs/c(=N\c3ccc(Br)cc3C)n2C)cc1`, the Activity turned out to be 1.98. For `CCc1ccc(NC(=O)Cc2cs/c(=N\c3ccc(Br)cc3)n2C)cc1`, the Activity is 1.98. Same read-out and setting: with `CCc1ccc(NC(=O)Cc2cs/c(=N\c3ccc([N+](=O)[O-])cc3OC)n2C)cc1` the figure was 1.81; with `CCc1ccc(NC(=O)Cc2cs/c(=N\c3ccc(F)cc3Cl)n2C)cc1`, 1.98.

As to `Cn1c(CC(=O)Nc2ccc(Br)cc2)cs/c1=N\c1cccc(Br)c1`, the Activity is 1.99. Still for that read-out and setting: the figure for `Cn1c(CC(=O)Nc2ccc(Oc3ccccc3)cc2)cs/c1=N\c1cccc(F)c1` is 1.23.

The test system of the next assay is Pyricularia grisea. Kind of assay: Antifungal activity against Magnaporthe grisea infected rice plant after 5 days relative to control. The arrangement: concentration or dose not given beside the values. It counts as functional.
`CN(C(=O)Cc1cs/c(=N\c2ccc(Br)cc2)n1C)c1ccccc1`: the Activity was determined as 0%. In turn, `CN(C(=O)Cc1cs/c(=N\c2ccc(F)cc2)n1C)c1ccccc1` gave an Activity of 0%. Same read-out and setting: with `CCc1ccc(NC(=O)Cc2cs/c(=N\c3ccc(OC)cc3)n2CCO)cc1` the figure was 75%; with `COc1ccc(/N=c2\scc(CC(=O)Nc3ccc(Cl)cc3)n2C)cc1`, 83%; with `CN(C(=O)Cc1cs/c(=N\c2ccc(Oc3ccccc3)cc2)n1C)c1ccccc1`, 0%. The compound `CN(C(=O)Cc1cs/c(=N\c2ccc(C#N)cc2)n1C)c1ccccc1` came in with an Activity of 25%. On the same count and under the same terms, with `O=C(Cc1cs/c(=N\c2ccc(Oc3ccccc3)cc2)n1C1CC1)Nc1ccc(Br)cc1` the figure was 16%; with `COc1ccc(NC(=O)Cc2cs/c(=N\c3ccc([N+](=O)[O-])cc3)n2C)cc1`, 99%; with `CCc1ccc(NC(=O)Cc2cs/c(=N\c3ccc(OC)cc3)n2C)cc1`, 98%. Still for that read-out and setting: the figure for `COc1ccc(/N=c2\scc(CC(=O)Nc3ccc(Cl)cc3)n2CCO)cc1` is 10%; for `CN(C(=O)Cc1cs/c(=N\c2ccc(C(F)(F)F)cc2)n1C)c1ccccc1` it is 0%; for `COc1ccc(NC(=O)Cc2cs/c(=N\c3ccc([N+](=O)[O-])cc3)n2CCO)cc1` it is 20%. The same measure, in the same setting: the figure for `CN(C(=O)Cc1cs/c(=N\c2cccc(F)c2)n1C)c1ccccc1` is 0%; for `Cn1c(CC(=O)Nc2ccc(Br)cc2)cs/c1=N\c1ccc(Oc2ccccc2)cc1` it is 98%. Regarding `CN(C(=O)Cc1cs/c(=N\c2cc(Cl)cc(Cl)c2)n1C)c1ccccc1`, the Activity was found to be 8%. In turn, `CN(C(=O)Cc1cs/c(=N\c2ccc(F)cc2F)n1C)c1ccccc1` returned an Activity of 0%. The same measure, in the same setting: the figure for `CCc1ccc(NC(=O)Cc2cs/c(=N\c3ccc(C#N)cc3)n2CCO)cc1` is 86%; for `CCc1ccc(NC(=O)Cc2cs/c(=N\c3ccc(C#N)cc3)n2C)cc1` it is 93%.
